According to US8759295B2, “Peptide-peptidase inhibitor conjugates and methods of using same” (Amylin Pharmaceuticals, LLC, priority 2006, dated 2014):
Starred links: 1 amine or outer side, 2 acyl side, 3 side chain; linkers in the order of their positions; H or OH if unused. Non-standard residues stand in square brackets, D forms with d. No end group written: not given here. *: point of attachment. Pyrrolidine(2S-CN) = N#C[C@@H]1CCCN1*; εLys = N[C@@H](CCCCN[*:1])C(=O)[*:2]; pGlu = O=C1CC[C@@H](C(=O)O)N1; AEEA = NCCOCCOCC(=O)O; βAla = NCCC(=O)O

Experiments:
[1] = target: T1, human GIP receptor (HEK-GIPR membranes) (Homo sapiens, UniProt P48546); experiment: GIP receptor binding displacement assay (RBA); conditions: 10 nM conjugate, 30 pM 125I-GIP
T1 construct: expressed in transfected cells
T1 sequence (P48546 22-466): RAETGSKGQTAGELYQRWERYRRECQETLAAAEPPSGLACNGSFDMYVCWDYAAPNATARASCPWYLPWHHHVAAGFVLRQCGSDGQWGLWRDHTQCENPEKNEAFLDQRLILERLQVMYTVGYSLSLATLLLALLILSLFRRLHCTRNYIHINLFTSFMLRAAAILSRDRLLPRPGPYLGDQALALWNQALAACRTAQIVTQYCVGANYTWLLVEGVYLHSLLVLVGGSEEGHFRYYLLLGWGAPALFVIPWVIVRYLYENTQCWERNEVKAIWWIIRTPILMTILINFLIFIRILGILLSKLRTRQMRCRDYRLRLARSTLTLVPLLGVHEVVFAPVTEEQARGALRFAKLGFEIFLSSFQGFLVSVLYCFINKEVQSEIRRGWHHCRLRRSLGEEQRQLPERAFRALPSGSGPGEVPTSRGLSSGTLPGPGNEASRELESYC
Method: Membrane fractions were prepared from confluent cell cultures of HEK-GIPR, snap frozen, and stored at −80° C. until use. […] Reactions were allowed to proceed to equilibrium for 90 minutes at room temperature with constant shaking. The reaction mixtures were then filtered through 96-well glass fiber filter plates separating bound and unbound fractions of radioligand.

[2] = test system: NIH/Swiss mice; experiment: Oral glucose tolerance test (OGTT), glucose lowering; conditions: 30 nM/kg
[3] = target: Recombinant DPP-IV (Homo sapiens, UniProt P27487); experiment: DPP-IV inhibition assay with chromogenic substrate; assay type: biochemical; design: purchased Chemicon International, Inc., Temecula, Calif; conditions: mean SEM of at least three determinations
Method: The reactions were initiated by adding 1 μl DPP-IV enzyme (0.05 mU) into each well and the absorbance at 410 nm was measured with 20-sec intervals over a 30-min period using a SpectraMax plate reader (Molecular Devices, Corp., Sunnyvale, Calif.). The velocities of each reaction at different inhibitor concentrations were calculated and the reciprocal velocities were plotted against inhibitor concentrations in Dixon graphs. The IC50 values of reaction velocities were calculated through fitting the plots with linear equation.
The IC50 (nM) values in Table 5 are expressed as the mean SEM of at least three independent determinations.

Sequence of Recombinant DPP-IV (P27487 whole entry, species assumed): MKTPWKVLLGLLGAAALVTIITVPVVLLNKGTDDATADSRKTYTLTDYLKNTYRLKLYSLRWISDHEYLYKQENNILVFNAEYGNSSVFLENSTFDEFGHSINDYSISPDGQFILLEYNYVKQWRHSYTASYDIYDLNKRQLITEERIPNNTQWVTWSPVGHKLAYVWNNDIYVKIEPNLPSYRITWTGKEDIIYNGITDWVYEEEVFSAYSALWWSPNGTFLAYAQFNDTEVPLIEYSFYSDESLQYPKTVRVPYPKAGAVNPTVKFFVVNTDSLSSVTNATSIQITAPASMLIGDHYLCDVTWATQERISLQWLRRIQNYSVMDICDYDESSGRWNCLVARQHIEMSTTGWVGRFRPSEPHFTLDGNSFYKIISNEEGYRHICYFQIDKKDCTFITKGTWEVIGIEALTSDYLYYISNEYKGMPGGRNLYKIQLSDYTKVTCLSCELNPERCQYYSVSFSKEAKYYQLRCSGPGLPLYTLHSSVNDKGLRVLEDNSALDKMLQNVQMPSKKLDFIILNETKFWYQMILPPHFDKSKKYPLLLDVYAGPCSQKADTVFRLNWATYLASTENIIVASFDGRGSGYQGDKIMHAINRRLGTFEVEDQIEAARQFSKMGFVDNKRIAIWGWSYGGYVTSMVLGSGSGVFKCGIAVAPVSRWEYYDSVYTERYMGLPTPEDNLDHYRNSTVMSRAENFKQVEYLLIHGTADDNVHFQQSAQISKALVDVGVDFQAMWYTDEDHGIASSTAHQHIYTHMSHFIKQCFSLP

| Molecule | OGTT % maximal decrease [2] | also measured |
| --- | --- | --- |
| CC[C@H](C)[C@H](NC(=O)[C@H](CO)NC(=O)[C@H](Cc1ccc(O)cc1)NC(=O)[C@H](CC(=O)O)NC(=O)[C@H](CO)NC(=O)[C@@H](NC(=O)[C@H](Cc1ccccc1)NC(=O)[C@@H](NC(=O)CNC(=O)[C@H](CCC(=O)O)NC(=O)[C@H](C)NC(=O)[C@@H](N)Cc1ccc(O)cc1)[C@@H](C)O)[C@@H](C)CC)C(=O)N[C@@H](C)C(=O)N[C@@H](CCSC)C(=O)N[C@@H](CC(=O)O)C(=O)N[C@@H](CCCCN)C(=O)N[C@H](C(=O)N[C@@H](Cc1c[nH]cn1)C(=O)N[C@@H](CCC(N)=O)C(=O)N[C@@H](CCC(N)=O)C(=O)N[C@@H](CC(=O)O)C(=O)N[C@@H](Cc1ccccc1)C(=O)N[C@H](C(=O)N[C@@H](CC(N)=O)C(=O)N[C@@H](Cc1c[nH]c2ccccc12)C(=O)N[C@@H](CC(C)C)C(=O)N[C@@H](CC(C)C)C(=O)N[C@@H](C)C(=O)N[C@@H](CCC(N)=O)C(=O)N[C@@H](CCCCN)C(=O)NCCOCCOCC(=O)NCCOCCOCC(=O)NCCCC[C@H](N)C(=O)N1CCC[C@H]1C#N)C(C)C)[C@@H](C)CC [GIP(1-30)-Ado-Ado-Lys-N-ε-(2-(S)-cyano pyrrolidyl)] | −17% | inhibition at 0.01 µM ([1]; read-out: GIP RBA % inhibition at 10 nM): 97% |
| CC[C@H](C)[C@H](NC(=O)[C@H](CO)NC(=O)[C@H](Cc1ccc(O)cc1)NC(=O)[C@H](CC(=O)O)NC(=O)[C@H](CO)NC(=O)[C@@H](NC(=O)[C@H](Cc1ccccc1)NC(=O)[C@@H](NC(=O)CNC(=O)[C@H](CCC(=O)O)NC(=O)[C@H](C)NC(=O)[C@@H](N)Cc1ccc(O)cc1)[C@@H](C)O)[C@@H](C)CC)C(=O)N[C@@H](C)C(=O)N[C@@H](CCSC)C(=O)N[C@@H](CC(=O)O)C(=O)N[C@@H](CCCCN)C(=O)N[C@H](C(=O)N[C@@H](Cc1c[nH]cn1)C(=O)N[C@@H](CCC(N)=O)C(=O)N[C@@H](CCC(N)=O)C(=O)N[C@@H](CC(=O)O)C(=O)N[C@@H](Cc1ccccc1)C(=O)N[C@H](C(=O)N[C@@H](CC(N)=O)C(=O)N[C@@H](Cc1c[nH]c2ccccc12)C(=O)N[C@@H](CC(C)C)C(=O)N[C@@H](CC(C)C)C(=O)N[C@@H](C)C(=O)N[C@@H](CCC(N)=O)C(=O)N[C@@H](CCCCN)C(=O)N1CCC[C@H]1C(=O)N[C@@H](CO)C(=O)N[C@@H](CO)C(=O)NCC(=O)N[C@@H](C)C(=O)N1CCC[C@H]1C(=O)N1CCC[C@H]1C(=O)N1CCC[C@H]1C(=O)N[C@@H](CO)C(=O)NCCOCCOCC(=O)NCCOCCOCC(=O)NCCCC[C@H](N)C(=O)N1CCC[C@H]1C#N)C(C)C)[C@@H](C)CC [GIP(1-30)-exendin-4(31-39)-Ado-Ado-Lys-N-ε-(2-(S)-cyano pyrrolidyl)] | −22% | – |
| CC[C@H](C)[C@H](NC(=O)[C@H](CO)NC(=O)[C@H](Cc1ccc(O)cc1)NC(=O)[C@H](CC(=O)O)NC(=O)[C@H](CO)NC(=O)[C@@H](NC(=O)[C@H](Cc1ccccc1)NC(=O)[C@@H](NC(=O)CNC(=O)[C@H](CCC(=O)O)NC(=O)[C@H](C)NC(=O)[C@H](Cc1ccc(O)cc1)NC(=O)COCCOCCNC(=O)COCCOCCNC(=O)CC[C@H](N)C(=O)N1CCC[C@H]1C#N)[C@@H](C)O)[C@@H](C)CC)C(=O)N[C@@H](C)C(=O)N[C@@H](CCSC)C(=O)N[C@@H](CC(=O)O)C(=O)N[C@@H](CCCCN)C(=O)N[C@H](C(=O)N[C@@H](Cc1c[nH]cn1)C(=O)N[C@@H](CCC(N)=O)C(=O)N[C@@H](CCC(N)=O)C(=O)N[C@@H](CC(=O)O)C(=O)N[C@@H](Cc1ccccc1)C(=O)N[C@H](C(=O)N[C@@H](CC(N)=O)C(=O)N[C@@H](Cc1c[nH]c2ccccc12)C(=O)N[C@@H](CC(C)C)C(=O)N[C@@H](CC(C)C)C(=O)N[C@@H](C)C(=O)N[C@@H](CCC(N)=O)C(=O)N[C@@H](CCCCN)C(=O)N1CCC[C@H]1C(=O)N[C@@H](CO)C(=O)N[C@@H](CO)C(=O)NCC(=O)N[C@@H](C)C(=O)N1CCC[C@H]1C(=O)N1CCC[C@H]1C(=O)N1CCC[C@H]1C(=O)N[C@@H](CO)C(=O)O)C(C)C)[C@@H](C)CC [N-(γ-L-Glu-2-(S)-cyanopyrrolidyl)-Ado-Ado) GIP(1-30)-exendin-4(31-39)] | – | IC50 [3]: 110 ± 2 nM |
| CC[C@H](C)[C@H](NC(=O)[C@H](CO)NC(=O)[C@H](Cc1ccc(O)cc1)NC(=O)[C@H](CC(=O)O)NC(=O)[C@H](CO)NC(=O)[C@@H](NC(=O)[C@H](Cc1ccccc1)NC(=O)[C@@H](NC(=O)CNC(=O)[C@H](CCC(=O)O)NC(=O)[C@@H](C)NC(=O)[C@@H](N)Cc1ccc(O)cc1)[C@@H](C)O)[C@@H](C)CC)C(=O)N[C@@H](C)C(=O)N[C@@H](CCSC)C(=O)N[C@@H](CC(=O)O)C(=O)N[C@@H](CCCCN)C(=O)N[C@H](C(=O)N[C@@H](Cc1c[nH]cn1)C(=O)N[C@@H](CCC(N)=O)C(=O)N[C@@H](CCC(N)=O)C(=O)N[C@@H](CC(=O)O)C(=O)N[C@@H](Cc1ccccc1)C(=O)N[C@H](C(=O)N[C@@H](CC(N)=O)C(=O)N[C@@H](Cc1c[nH]c2ccccc12)C(=O)N[C@@H](CC(C)C)C(=O)N[C@@H](CC(C)C)C(=O)N[C@@H](C)C(=O)N[C@@H](CCC(N)=O)C(=O)N[C@@H](CCCCN)C(=O)N1CCC[C@H]1C(=O)N[C@@H](CO)C(=O)N[C@@H](CO)C(=O)NCC(=O)N[C@@H](C)C(=O)N1CCC[C@H]1C(=O)N1CCC[C@H]1C(=O)N1CCC[C@H]1C(=O)N[C@@H](CO)C(=O)NCCOCCOCC(=O)NCCCC[C@H](N)C(=O)N1CCC[C@H]1C#N)C(C)C)[C@@H](C)CC [[D-Ala]GIP(1-30)-exendin-4(31-39)-Ado-Lys-N-ε-(2-(S)-cyano pyrrolidyl)] | −20% | – |
| H-YAEGTFISDYSIALDKIHQQDFVNWLLAQKPSSGAPPPS[AEEA][εLys]-{Pyrrolidine(2S-CN)} [[Leu^14]GIP(1-30)-exendin-4(31-39)-Ado-Lys-N-ε-(2-(S)-cyano pyrrolidyl)] | – | IC50 [3]: 82 ± 2 nM |
| Lys^16 (N-ε-(Aun-Aun-(γ-L-Glu-2-(S)-cyano pyrrolidyl))) GIP(1-30)-exendin(31-39) | −3% | – |
| [D-Ala^2, Leu^14]GIP-(1-30)-β-Ala-β-Ala-Lys(α-NH-Pyroglutamoyl)-Trp-Ala-Pro-COOH (peptide 1 Y[dA]EGTFISDYSIALDKIHQQDFVNWLLAQK[βAla][βAla]; peptide 2 [pGlu]KWAP-OH; not fully specified (some residues); printed as [D-Ala^2, Leu^14]GIP-(1-30)-β-Ala-β-Ala-Lys(α-NH-Pyroglutamoyl)-Trp-Ala-Pro-COOH; numbers in words are those of the source; also: linker at chain B 1 to a chain's C-terminus via βAla-βAla) | −12^ % | GIP RBA % inhibition at 10 nM [1]: 66% |
